Patent US7138361B2, “Herbicidal heterocycles” (E. I. du Pont de Nemours and Company, priority 2000, dated 2006)

Assays:
Assay in all cases: Test C preemergence
Assay type in all cases: in vivo
[1] = system: Surinam grass (Brachiaria decumbens)
Text: (§1) Seeds of plant species selected from bermudagrass (Cynodon dactylon), Surinam grass (Brachiaria decumbens), cocklebur (Xanthium strumarium), corn (Zea mays), crabgrass (Digitaria sanguinalis), woolly cupgrass (Eriochloa villosa), giant foxtail (Setaria faberii), goosegrass (Eleusine indica), johnsongrass (Sorghum halepense), kochia (Kochia scoparia), lambsquarters (Chenopodium album), morningglory (Ipomoea hederacea), yellow nutsedge (Cyperus esculentus), pigweed (Amaranthus retroflexus), common ragweed (Ambrosia elatior), soybean (Glycine max) and velvetleaf (Abutilon theophrasti) were planted and treated preemergence with test chemicals formulated in a non-phytotoxic solvent mixture which included a surfactant.
(§2) At the same time, plants selected from these crop and weed species and also winter barley (Hordeum vulgare), blackgrass (Alopecurus myosuroides), canary grass (Phalaris minor), chickweed (Stellaria media), downy brome (Bromus tectorum), green foxtail (Setaria viridis), Italian ryegrass (Lolium multiflorum), wheat (Triticum aestivum), wild oat (Avena fatua) and windgrass (Apera spica-venti) were treated with postemergence applications of some of the test chemicals formulated in the same manner. Plants ranged in height from 2 to 18 cm (1- to 4-leaf stage) for postemergence treatments. Plant species in the flooded paddy test consisted of rice (Oryza saliva), smallflower flatsedge (Cyperus difformis), duck salad (Heteranthera limosa) and barnyardgrass (Echinochloa crus-galli) grown to the 2-leaf stage for testing. Treated plants and controls were maintained in a greenhouse for 12 to 14 days, after which time all species were compared to controls and visually evaluated. Plant response ratings, summarized in Table C, are based on a scale of 0 to 100 where 0 is no effect and 100 is complete control. A dash (-) response means no test result.

[2] = system: woolly cupgrass (Eriochloa villosa)
Text: as §1, §2

[3] = system: goosegrass (Eleusine indica)
Text: as §1, §2

corn (Zea mays) = system: corn (Zea mays)
Text: as §1, §2

[4] = system: yellow nutsedge (Cyperus esculentus)
Text: as §1, §2

Sunflower = settings: scale 0 to 100, 0 no effect, 100 complete control
Text: as §1, §2

[5] = system: common ragweed (Ambrosia elatior)
Text: as §1, §2

soybean (Glycine max) = system: soybean (Glycine max)
Text: as §1, §2

[6] = system: crabgrass (Digitaria sanguinalis)
Text: as §1, §2

Nightshade = system: Nightshade
Text: as §1, §2

kochia (Kochia scoparia) = system: kochia (Kochia scoparia)
Text: as §1, §2

[7] = system: johnsongrass (Sorghum halepense)
Text: as §1, §2

[8] = system: velvetleaf (Abutilon theophrasti)
Text: as §1, §2

[9] = system: bermudagrass (Cynodon dactylon)
Text: as §1, §2

[10] = system: giant foxtail (Setaria faberii)
Text: as §1, §2

[11] = system: cocklebur (Xanthium strumarium)
Text: as §1, §2

[12] = system: lambsquarters (Chenopodium album)
Text: as §1, §2

[13] = system: pigweed (Amaranthus retroflexus)
Text: as §1, §2

[14] = system: morningglory (Ipomoea hederacea)
Text: as §1, §2

[15] = Rate 62 g/ha, scale 0 to 100, 0 no effect, 100 complete control
[16] = preemergence, Rate 16 g/ha, scale 0 to 100
[17] = preemergence, Rate 31 g/ha, scale 0 to 100
[18] = preemergence, Rate 125 g/ha, scale 0 to 100, 0 no effect, 100 complete control
[19] = Rate 62 g/ha; scale 0 to 100, 0 no effect, 100 complete control
[20] = Rate 125 g/ha, scale 0 to 100, 0 no effect, 100 complete control
[21] = preemergence, Rate 250 g/ha, visual evaluation after 12 to 14 days
[22] = preemergence, Rate 250 g/ha, scale 0 to 100, 0 no effect, 100 complete control

Structure (SMILES): CC(C)(C)c1ccn(C2CCN(c3cccc(Cl)c3)C2=O)n1 (centres unmarked) [Compound 43]
- Plant response rating, Surinam grass [1, 15]: 0
- Plant response rating, Surinam grass [1, 16]: 0
- Plant response rating, Surinam grass [1, 17]: 0
- Plant response rating, Surinam grass [1, 18]: 0
- Plant response rating, Cupgrass, Woolly [2, 15]: 30
- Plant response rating, Cupgrass, Woolly [2, 16]: 0
- Plant response rating, Cupgrass, Woolly [2, 17]: 0
- Plant response rating, Cupgrass, Woolly [2, 18]: 30
- Plant response rating, Goosegrass [3, 15]: 50
- Plant response rating, Goosegrass [3, 16]: 0
- Plant response rating, Goosegrass [3, 17]: 0
- Plant response rating, Goosegrass [3, 18]: 90
- Plant response rating, Corn (corn (Zea mays); [15]): 0
- Plant response rating, Corn (corn (Zea mays); [16]): 0
- Plant response rating, Corn (corn (Zea mays); [17]): 0
- Plant response rating, Corn (corn (Zea mays); [18]): 0
- Plant response rating, Nutsedge [4, 15]: 0
- Plant response rating, Nutsedge [4, 16]: 0
- Plant response rating, Nutsedge [4, 17]: 0
- Plant response rating, Nutsedge [4, 18]: 30
- Plant response rating, Sunflower (Sunflower; Rate 62 g/ha): 0
- Plant response rating, Ragweed, Common [5, 15]: 0
- Plant response rating, Ragweed, Common [5, 16]: 0
- Plant response rating, Ragweed, Common [5, 17]: 0
- Plant response rating, Ragweed, Common [5, 18]: 30
- Plant response rating, Soybean (soybean (Glycine max); [15]): 0
- Plant response rating, Soybean (soybean (Glycine max); [16]): 0
- Plant response rating, Soybean (soybean (Glycine max); [17]): 0
- Plant response rating, Soybean (soybean (Glycine max); [18]): 40
- Plant response rating, Crabgrass [6, 15]: 40
- Plant response rating, Crabgrass [6, 16]: 0
- Plant response rating, Crabgrass [6, 17]: 20
- Plant response rating, Crabgrass [6, 18]: 90
- Plant response rating, Nightshade (Nightshade; Rate 16 g/ha, scale 0 to 100): 0
- Plant response rating, Nightshade (Nightshade; Rate 31 g/ha, scale 0 to 100): 0
- Plant response rating, Nightshade (Nightshade; [19]): 0
- Plant response rating, Nightshade (Nightshade; [20]): 0
- Plant response rating, Kochia (kochia (Kochia scoparia); [15]): 90
- Plant response rating, Kochia (kochia (Kochia scoparia); [16]): 20
- Plant response rating, Kochia (kochia (Kochia scoparia); [17]): 70
- Plant response rating, Kochia (kochia (Kochia scoparia); [18]): 100
- Plant response rating, Johnsongrass [7, 15]: 0
- Plant response rating, Johnsongrass [7, 16]: 0
- Plant response rating, Johnsongrass [7, 17]: 0
- Plant response rating, Johnsongrass [7, 18]: 50
- Plant response rating, Velvetleaf [8, 15]: 0
- Plant response rating, Velvetleaf [8, 16]: 0
- Plant response rating, Velvetleaf [8, 17]: 0
- Plant response rating, Velvetleaf [8, 18]: 0
- Plant response rating, Bermudagrass [9, 15]: 50
- Plant response rating, Bermudagrass [9, 16]: 20
- Plant response rating, Bermudagrass [9, 17]: 40
- Plant response rating, Bermudagrass [9, 18]: 60
- Plant response rating, Foxtail, Giant [10, 15]: 0
- Plant response rating, Foxtail, Giant [10, 16]: 0
- Plant response rating, Foxtail, Giant [10, 17]: 0
- Plant response rating, Foxtail, Giant [10, 18]: 0
- Plant response rating, Cocklebur [11, 15]: 100
- Plant response rating, Cocklebur [11, 16]: 0
- Plant response rating, Cocklebur [11, 17]: 20
- Plant response rating, Cocklebur [11, 18]: 100
- Plant response rating, Lambsquarters [12, 15]: 100
- Plant response rating, Lambsquarters [12, 16]: 100
- Plant response rating, Lambsquarters [12, 17]: 100
- Plant response rating, Lambsquarters [12, 18]: 100
- Plant response rating, Pigweed [13, 15]: 100
- Plant response rating, Pigweed [13, 16]: 20
- Plant response rating, Pigweed [13, 17]: 100
- Plant response rating, Pigweed [13, 18]: 0
- Plant response rating, Morningglory [14, 15]: 0
- Plant response rating, Morningglory [14, 16]: 0
- Plant response rating, Morningglory [14, 17]: 0
- Plant response rating, Morningglory [14, 18]: 0

Structure (SMILES): COC(=O)c1cccc(N2CCC(n3ccc(C(C)(C)C)n3)C2=O)c1 (centres unmarked) [Compound 73]
- Plant response rating, Surinam grass [1, 15]: 50
- Plant response rating, Surinam grass [1, 20]: 70
- Plant response rating, Surinam grass [1, 17]: 20
- Plant response rating (0 to 100), Surinam grass [1, 21]: 70
- Plant response rating, Cupgrass, Woolly [2, 15]: 60
- Plant response rating, Cupgrass, Woolly [2, 20]: 80
- Plant response rating, Cupgrass, Woolly [2, 17]: 20
- Plant response rating (0 to 100), Cupgrass, Woolly [2, 21]: 100
- Plant response rating, Goosegrass [3, 15]: 80
- Plant response rating, Goosegrass [3, 20]: 100
- Plant response rating, Goosegrass [3, 17]: 60
- Plant response rating (0 to 100), Goosegrass [3, 21]: 100
- Plant response rating, Corn (corn (Zea mays); [15]): 0
- Plant response rating, Corn (corn (Zea mays); [20]): 0
- Plant response rating, Corn (corn (Zea mays); [17]): 0
- Plant response rating (0 to 100), Corn (corn (Zea mays); [21]): 0
- Plant response rating, Nutsedge [4, 15]: 0
- Plant response rating, Nutsedge [4, 20]: 30
- Plant response rating, Nutsedge [4, 17]: 0
- Plant response rating, Nutsedge [4, 22]: 50
- Plant response rating, Sunflower (Sunflower; Rate 125 g/ha): 50
- Plant response rating, Ragweed, Common [5, 20]: 80
- Plant response rating, Ragweed, Common [5, 17]: 30
- Plant response rating, Ragweed, Common [5, 22]: 100
- Plant response rating, Soybean (soybean (Glycine max); [20]): 40
- Plant response rating, Soybean (soybean (Glycine max); [17]): 0
- Plant response rating, Soybean (soybean (Glycine max); [22]): 70
- Plant response rating, Crabgrass [6, 15]: 90
- Plant response rating, Crabgrass [6, 20]: 100
- Plant response rating, Crabgrass [6, 17]: 90
- Plant response rating (0 to 100), Crabgrass [6, 21]: 100
- Plant response rating, Nightshade (Nightshade; Rate 31 g/ha, scale 0 to 100): 50
- Plant response rating, Nightshade (Nightshade; [19]): 60
- Plant response rating, Nightshade (Nightshade; Rate 125 g/ha; scale 0 to 100, 0 no effect, 100 complete control): 80
- Plant response rating, Nightshade (Nightshade; Rate 250 g/ha, scale 0 to 100, 0 no effect, 100 complete control): 100
- Plant response rating, Kochia (kochia (Kochia scoparia); [15]): 80
- Plant response rating, Kochia (kochia (Kochia scoparia); [20]): 100
- Plant response rating, Kochia (kochia (Kochia scoparia); [17]): 20
- Plant response rating (0 to 100), Kochia (kochia (Kochia scoparia); [21]): 100
- Plant response rating, Johnsongrass [7, 15]: 20
- Plant response rating, Johnsongrass [7, 20]: 30
- Plant response rating, Johnsongrass [7, 17]: 0
- Plant response rating (0 to 100), Johnsongrass [7, 21]: 50
- Plant response rating, Velvetleaf [8, 20]: 50
- Plant response rating, Velvetleaf [8, 17]: 20
- Plant response rating, Velvetleaf [8, 22]: 60
- Plant response rating, Bermudagrass [9, 15]: 70
- Plant response rating, Bermudagrass [9, 20]: 100
- Plant response rating, Bermudagrass [9, 17]: 60
- Plant response rating (0 to 100 where 0 is no effect and 100 is complete control), Bermudagrass [9, 21]: 100
- Plant response rating, Foxtail, Giant [10, 15]: 80
- Plant response rating, Foxtail, Giant [10, 20]: 100
- Plant response rating, Foxtail, Giant [10, 17]: 20
- Plant response rating (0 to 100), Foxtail, Giant [10, 21]: 100
- Plant response rating, Cocklebur [11, 15]: 70
- Plant response rating, Cocklebur [11, 17]: 20
- Plant response rating (0 to 100), Cocklebur [11, 21]: 80
- Plant response rating, Pigweed [13, 20]: 0
- Plant response rating, Pigweed [13, 17]: 0
- Plant response rating, Pigweed [13, 22]: 40
- Plant response rating, Morningglory [14, 15]: 30
- Plant response rating, Morningglory [14, 20]: 30
- Plant response rating, Morningglory [14, 17]: 30
- Plant response rating, Morningglory [14, 22]: 100
